These results are taken from patent publication US9464077B2, “Nitrogen-containing aromatic heterocyclic compound” (Astellas Pharma Inc., priority 2012, dated 2016).

As a reminder, the IC50 is the midpoint of a concentration-inhibition curve. For orientation: inhibition in vivo means the relative decrease from the control value, in per cent. The low end stands for little suppression, the high end for strong suppression.

The subject of one assay is FGFR3_S249C/NIH3T3 cells. Nature of the assay: Growth assay of cells with forced expression of mutant FGFR3. It is filed as cell-based. As to conditions: Mus musculus, NIH3T3, 120 h; 5 days after addition, CellTiter-Glo; read-out: IC50 (growth inhibition). As for the experimental part:
FGFR3_S249C/NIH3T3 cells were added to a 96-well spheroid plate (U bottom) at a concentration of 3000 cells/well/90 μL, and the compound solution (10 μL) was added thereto on the next day (final DMSO concentration: 0.1%). The compound solution was prepared by serially diluting the compound with DMSO at a 3-fold common ratio (9 portions and DMSO only) from the maximum concentration of 10 mM and then diluted 100-fold with a culture medium (D-MEM, 10% FBS). 5 days after the addition of the compound, the growth inhibition caused by the compound was evaluated by Promega (G7573) CellTiter-Glo™ Luminescent Cell Viability Assay.
For orientation: ATP-based viability assays read luminescence as a measure of living cells.

Assay [1] concerns UM-UC-14 (FGFR3_S249C-positive cells, bladder cancer). Description: Antitumor test on UM-UC-14 subcutaneous xenograft. Format: in vivo, nude mice. The note with it: oral, once a day. As for the experimental part: 3×10^6 UM-UC-14 cells per 0.1 mL (PBS+matrigel, 1:1) were inoculated subcutaneously into the right flank of nude mice (CAnN, Cg-Foxn1nu/CrlCrlj (nu/nu), male, 4- to 5-week-old), and when their tumor size reached about 250 mm^3, drug administration was started (Day 1). The drug was administered once a day and the tumor size was measured with a caliper and the body weight was also measured every two or three days. The antitumor effect was finally determined based on the tumor volume (mm^3; minor axis (mm)×minor axis (mm)×major axis (mm)/2) at Day 11 (n=3-5). To the control group, 0.5% MC (methyl cellulose) was administered. […] “% regression” indicates what percentage of regression could be achieved compared with the tumor volume at Day 1. Here, the tumor volume at Day 1 means tumor volume immediately before drug administration.

The target in a further assay is human recombinant FGFR3 (Homo sapiens, UniProt P22607). Description: FGFR3 enzyme assay (LabChip EZ Reader).
Chain of human recombinant FGFR3 (P22607 23-806): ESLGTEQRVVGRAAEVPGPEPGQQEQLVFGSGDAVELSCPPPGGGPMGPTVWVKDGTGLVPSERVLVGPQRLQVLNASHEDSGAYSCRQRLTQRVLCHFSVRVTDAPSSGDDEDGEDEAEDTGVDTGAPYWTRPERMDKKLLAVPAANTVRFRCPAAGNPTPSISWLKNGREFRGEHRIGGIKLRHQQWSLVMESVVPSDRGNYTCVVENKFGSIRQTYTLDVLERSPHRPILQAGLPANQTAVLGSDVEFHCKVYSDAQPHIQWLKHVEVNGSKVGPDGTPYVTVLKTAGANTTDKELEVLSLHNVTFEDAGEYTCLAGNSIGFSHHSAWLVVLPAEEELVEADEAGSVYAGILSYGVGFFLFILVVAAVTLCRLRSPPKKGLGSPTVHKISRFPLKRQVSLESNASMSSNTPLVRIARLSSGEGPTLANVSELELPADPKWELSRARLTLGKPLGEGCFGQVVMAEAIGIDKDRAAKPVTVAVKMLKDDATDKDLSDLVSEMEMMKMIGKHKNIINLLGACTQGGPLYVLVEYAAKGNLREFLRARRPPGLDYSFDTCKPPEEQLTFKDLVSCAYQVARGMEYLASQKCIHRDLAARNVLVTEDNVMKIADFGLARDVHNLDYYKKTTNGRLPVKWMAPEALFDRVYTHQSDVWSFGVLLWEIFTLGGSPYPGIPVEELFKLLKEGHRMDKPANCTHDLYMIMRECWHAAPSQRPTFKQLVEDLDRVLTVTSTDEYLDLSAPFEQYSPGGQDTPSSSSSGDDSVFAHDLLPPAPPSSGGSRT
Another assay concerns the target human recombinant FGFR1 (Homo sapiens, UniProt P11362). Nature of the assay: FGFR1 enzyme assay (LabChip EZ Reader).
The mark [2] stands for this setting: Mus musculus, UMUC14, 264 h, 1 mg/kg/day, tumor volume at Day 11.

Chain of human recombinant FGFR1 (P11362 22-822): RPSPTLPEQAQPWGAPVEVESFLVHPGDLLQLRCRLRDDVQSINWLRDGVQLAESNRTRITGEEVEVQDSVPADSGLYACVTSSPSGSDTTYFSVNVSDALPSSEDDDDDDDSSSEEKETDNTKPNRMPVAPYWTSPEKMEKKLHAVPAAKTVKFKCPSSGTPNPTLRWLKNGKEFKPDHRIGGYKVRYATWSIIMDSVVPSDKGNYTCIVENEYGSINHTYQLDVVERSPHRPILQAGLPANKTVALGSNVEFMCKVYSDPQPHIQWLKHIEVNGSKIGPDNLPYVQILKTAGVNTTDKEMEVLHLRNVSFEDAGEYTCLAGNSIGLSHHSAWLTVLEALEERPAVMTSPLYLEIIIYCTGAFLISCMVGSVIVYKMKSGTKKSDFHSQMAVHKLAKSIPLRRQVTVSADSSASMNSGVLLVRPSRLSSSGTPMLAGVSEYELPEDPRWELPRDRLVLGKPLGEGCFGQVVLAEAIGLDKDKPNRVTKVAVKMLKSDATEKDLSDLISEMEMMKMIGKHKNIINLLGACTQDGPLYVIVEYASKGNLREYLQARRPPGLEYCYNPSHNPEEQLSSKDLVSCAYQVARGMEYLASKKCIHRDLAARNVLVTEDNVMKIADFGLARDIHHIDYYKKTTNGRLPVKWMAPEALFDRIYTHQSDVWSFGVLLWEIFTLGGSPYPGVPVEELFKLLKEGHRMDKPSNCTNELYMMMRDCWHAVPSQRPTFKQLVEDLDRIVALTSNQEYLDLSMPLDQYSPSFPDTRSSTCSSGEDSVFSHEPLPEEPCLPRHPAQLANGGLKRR
Procedure for human recombinant FGFR1: (§1) The compound was diluted with a solution of dimethyl sulfoxide (DMSO) (10-fold common ratio, 4 portions) before dilution with a reaction buffer (100 mM HEPES (pH7.5), 0.003% Brij-35, 0.004% Tween 20, 0.5 mM DTT, and 10 mM MgCl2) so that the final DMSO concentration was 2%. To 4 μL of the compound solution in a 384-well plate, 2 μL each of FGFR1 enzyme (2 or 3 ng/μL), FGFR2 enzyme (2 ng/μL), or FGFR3 enzyme (6 ng/μL) which were diluted with the reaction buffer was added. […] After the reaction was stopped, the reaction mixture was measured with a LabChip EZ Reader. The IC50 values were calculated by non-linear regression based on the inhibition rates obtained.
Procedure for human recombinant FGFR3: as §1

With `COc1cc(Nc2ncc(OCc3c(F)c(OC)cc(OC)c3F)cn2)ccc1N1CCC2(CCNCC2)CC1` [Example 95], the values for the half-inhibitory concentration (IC50) in the assay on FGFR3_S249C/NIH3T3 cells and at human recombinant FGFR3 were 57 nM and 2 nM, respectively. The same compound registered an inhibition in vivo at 3 mg/kg/day in assay [1] (Mus musculus, UMUC14, 264 h, 3 mg/kg/day, tumor volume at Day 11) of 97%.

As to `COc1cc(OC)c(F)c(COc2cnc(Nc3cnn(CC(=O)N4CC(O)C4)c3)nc2)c1F` [Example 115], the 50% inhibitory concentration (IC50) in the assay on FGFR3_S249C/NIH3T3 cells is 36 nM; on human recombinant FGFR3, 2 nM; on human recombinant FGFR1, 2 nM. In assay [1] (setting [2]), the inhibition in vivo at 1 mg/kg/day stood at 70%.

On to `COc1cc(OC)c(Cl)c(COc2cnc(Nc3cnn(C4CCN(C)CC4)c3)nc2)c1Cl` [Example 71], for which the concentration for half-maximal inhibition (IC50) was 10 nM in the assay with FGFR3_S249C/NIH3T3 cells, 2 nM at human recombinant FGFR3 and 2 nM at human recombinant FGFR1. In addition, the inhibition in vivo at 1 mg/kg/day in assay [1] (setting [2]) worked out at 50%.

With `COc1cc(Nc2ncc(CCc3c(F)c(OC)cc(OC)c3F)cn2)ccc1N1CCN(C)CC1` [Ex 7], on human recombinant FGFR1, the IC50 worked out at 2 nM.

For `COc1cc(OC)c(F)c(CCc2cnc(Nc3ccc(N4CCC(N5CCN(C)CC5)CC4)c(F)c3)nc2)c1F` [Example 33], the IC50 turned out to be 26 nM with FGFR3_S249C/NIH3T3 cells, 2 nM at human recombinant FGFR3 and 2 nM on human recombinant FGFR1. The same compound yielded an inhibition in vivo at 1 mg/kg/day in assay [1] (setting [2]) of 70%.

Regarding `COc1cc(OC)c(F)c(COc2cnc(Nc3cnn(C[C@H](O)CO)c3)nc2)c1F` [Ex 11], the figures for the IC50 in the assay with FGFR3_S249C/NIH3T3 cells, on human recombinant FGFR3 and on human recombinant FGFR1 were 13 nM, 2 nM and 1 nM, respectively.

As for `COc1cc(OC)c(F)c(COc2cnc(Nc3cnn(CCN4CCN(C)CC4)c3)nc2)c1F` [Example 114], the half-inhibitory concentration (IC50) with FGFR3_S249C/NIH3T3 cells was 7 nM; at human recombinant FGFR3, 1 nM; on human recombinant FGFR1, 2 nM. In addition, in assay [1] (1 mg/kg/day, tumor volume at Day 11 vs Day 1), the “Antitumor Activity, % regression” value is 33%.

For the compound `COc1cc(Nc2ncc(OCc3c(F)c(OC)cc(OC)c3F)cn2)ccc1N1CCN(C)CC1` [Example 57], the IC50 at human recombinant FGFR1 turned out to be 1 nM.
